Data set [1] has as its target T1, mouse DGAT1 (Mus musculus, UniProt Q9Z2A7).
T1 construct: made in house; host or cells: insect cells (High Five, Sf9, Sf21, etc.), baculovirus expression system (Invitrogen)
T1 sequence (Q9Z2A7 1-498): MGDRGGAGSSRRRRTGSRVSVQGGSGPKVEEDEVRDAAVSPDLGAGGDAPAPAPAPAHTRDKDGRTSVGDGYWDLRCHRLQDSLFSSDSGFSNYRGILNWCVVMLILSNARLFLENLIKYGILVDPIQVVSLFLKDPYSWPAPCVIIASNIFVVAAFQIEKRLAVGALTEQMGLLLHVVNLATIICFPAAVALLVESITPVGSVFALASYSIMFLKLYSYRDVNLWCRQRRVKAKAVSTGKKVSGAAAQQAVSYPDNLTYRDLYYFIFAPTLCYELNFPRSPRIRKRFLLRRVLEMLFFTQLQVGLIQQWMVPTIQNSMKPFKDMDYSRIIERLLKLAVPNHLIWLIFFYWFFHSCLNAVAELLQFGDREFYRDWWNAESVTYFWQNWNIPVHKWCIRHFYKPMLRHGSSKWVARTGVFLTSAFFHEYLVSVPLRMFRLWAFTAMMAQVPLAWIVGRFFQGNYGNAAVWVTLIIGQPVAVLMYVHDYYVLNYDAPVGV
Nature of the data set: DGAT1 inhibitory effect test (microsome fraction, [14C]-oleoyl-CoA, triglyceride radioactivity by TLC). The data set is classed as biochemical. To be noted: 0.5 h; concentration of the test compound 0.1 μg/ml; mouse DGAT1 microsomes, 23° C., 30 minutes; read-out: Inhibitory ratio. On the procedure:
The cDNA which encodes mouse DGAT1 was cloned from a mouse cDNA library by polymerase chain reaction (hereinafter referred to as “PCR”) and introduced into an insect cell virus vector (baculovirus expression system, Invitrogen). After insect cells (High Five, Sf9, Sf21, etc., Invitrogen) were infected with the virus, the cells were collected in buffer A [0.1M sucrose, 50 mM KCl, 40 mM potassium phosphate (pH 7.4), 30 mM EDTA, 1% Protease inhibitor cocktail (SIGMA, P-8340)] and crushed with a Polytron homogenizer. The supernatant obtained by subjecting the homogenate to low speed centrifugal processing (10,000 ×g, 30 minutes) was further subjected to higher-speed centrifugal processing (100,000 ×g, 60 minutes) and the precipitate was resuspended in buffer A as the microsome fraction and used as DGAT1 enzyme. The DGAT1 enzyme was divided into small volumes and stored at −80° C.
(2) DGAT1 Inhibitory Effect Test
The reaction liquid of the following composition [175 mM Tris-HCl (pH 8.0), 8 mM MgCl2, 1 mg/ml BSA, 0.5 mM 1,2-dioleoyl-sn-glycerol (EtOH solution of 10-fold concentration, 10% added), 30 μM[14C]-oleoyl-CoA (about 50 mCi/mmol), 0.5% triton X-100, DGAT1 enzyme (10 μg) obtained in Test Example 1(1), test compound or vehicle (DMSO/MeOH, 7:3 solution, 5% added), total volume 50 μl] was incubated at room temperature (23° C.) for 30 minutes. A reaction terminating solution (70 μl) consisting of isopropanol/1-heptane/water (80:20:2, v/v/v) was added to the reaction solution and stirred, and subsequently stirred with water (30 μl) and 1-heptane (100 μl). The 1-heptane layer (50 μl) was spotted onto a TLC plate and developed with a developing solvent consisting of 1-hexane/diethyl ether/acetic acid (85:15:1, v/v/v). Radioactivity of triglyceride fraction was quantified by BAS2000 bio image analyzer (Fuji Film) and the inhibitory effect of the test compounds was calculated by the following formula through comparison with control. Here, radioactivity at no reaction (0 minutes incubation) was assumed as background. Inhibitory ratio=100−[(Radioactivity when test compound was added)−(Background)]/[(Radioactivity by control)−(Background)]×100

Where only a bound is given, the exact number is not on record here.

In turn, `COc1ccc(F)cc1NC(=O)Nc1ccc(N2CCN(C(=O)Nc3ccccc3C(F)(F)F)CC2)cc1` [Example 96, 4-{4-[3-(5-fluoro-2-methoxy-phenyl)-ureido]-phenyl}-piperazine-1-carboxylic acid (2-trifluoromethyl-phenyl)-amide] showed a melting point of 229 to 230 °C. Moreover, the inhibition at 0.1 µg/mL in data set [1] was no less than 50%.
Take `COc1ccc(F)cc1NC(=O)Nc1ccc(N2CCN(C(=O)Nc3ccccc3C)CC2)cc1` [Example 97, 4-{4-[3-(5-fluoro-2-methoxy-phenyl)-ureido]-phenyl}-piperazine-1-carboxylic acid o-tolylamide]: the melting point was 222 to 224 °C. Further, in data set [1], the inhibition at 0.1 µg/mL was no less than 50%.
Turning to `COc1ccc(F)cc1NC(=O)Nc1ccc(N2CCN(C(=O)Nc3c(C)cccc3Cl)CC2)cc1` [Example 98, 4-{4-[3-(5-fluoro-2-methoxy-phenyl)-ureido]-phenyl}-piperazine-1-carboxylic acid (2-chloro-6-methyl-phenyl)-amide], the melting point fell in the range of 240 to 241 °C. The inhibition at 0.1 µg/mL in data set [1] is no less than 50%.
With `COc1ccc(F)cc1NC(=O)Nc1ccc(N2CCN(C(=O)Nc3c(C)cccc3C)CC2)cc1` [Example 99, 4-{4-[3-(5-fluoro-2-methoxy-phenyl)-ureido]-phenyl}-piperazine-1-carboxylic acid (2,6-dimethyl-phenyl)-amide], the melting point was 226 to 228 °C. The inhibition at 0.1 µg/mL in data set [1] was no less than 50%.
The compound `COc1ccc(F)cc1NC(=O)Nc1ccc(N2CCN(C(=O)Nc3c(F)cccc3C(F)(F)F)CC2)cc1` [Example 100, 4-{4-[3-(5-fluoro-2-methoxy-phenyl)-ureido]-phenyl}-piperazine-1-carboxylic acid (2-fluoro-6-trifluoromethyl-phenyl)-amide] came in with a melting point of 181 to 183 °C. Also, the inhibition at 0.1 µg/mL in data set [1] is no less than 50%.
The like results for `COc1ccc(F)cc1NC(=O)Nc1ccc(N2CCN(C(=O)Nc3c(Cl)cccc3Cl)CC2)cc1` [Example 101, 4-{4-[3-(5-fluoro-2-methoxy-phenyl)-ureido]-phenyl}-piperazine-1-carboxylic acid (2,6-dichloro-phenyl)-amide] were, in that order, 235 to 237 °C and no less than 50%.
Compound `CCOc1ccc(Cl)cc1NC(=O)Nc1ccc(N2CCN(C(=O)Nc3ccccc3C(F)(F)F)CC2)cc1` [Example 102, 4-{4-[3-(5-chloro-2-ethoxy-phenyl)-ureido]-phenyl}-piperazine-1-carboxylic acid (2-trifluoromethyl-phenyl)-amide] came in with a melting point of 219 to 221 °C. In data set [1], the inhibition at 0.1 µg/mL is no less than 50%.
The like results for `CCOc1ccc(Cl)cc1NC(=O)Nc1ccc(N2CCN(C(=O)Nc3c(C)cccc3Cl)CC2)cc1` [Example 103, 4-{4-[3-(5-chloro-2-ethoxy-phenyl)-ureido]-phenyl}-piperazine-1-carboxylic acid (2-chloro-6-methyl-phenyl)-amide] were, in that order, 159 to 161 °C and no less than 50%.
In turn, `CCOc1ccc(Cl)cc1NC(=O)Nc1ccc(N2CCN(C(=O)Nc3c(C)cccc3C)CC2)cc1` [Example 104, 4-{4-[3-(5-chloro-2-ethoxy-phenyl)-ureido]-phenyl}-piperazine-1-carboxylic acid (2,6-dimethyl-phenyl)-amide] showed a melting point of 144 to 146 °C. In data set [1], the inhibition at 0.1 µg/mL is no less than 50%.
Take `CCOc1ccc(Cl)cc1NC(=O)Nc1ccc(N2CCN(C(=O)Nc3c(F)cccc3C(F)(F)F)CC2)cc1` [Example 105, 4-{4-[3-(5-chloro-2-ethoxy-phenyl)-ureido]-phenyl}-piperazine-1-carboxylic acid (2-fluoro-6-trifluoromethyl-phenyl)-amide]: the melting point lay within 146 to 148 °C. The inhibition at 0.1 µg/mL in data set [1] is no less than 50%.
`CCOc1ccc(Cl)cc1NC(=O)Nc1ccc(N2CCN(C(=O)Nc3ccc(OC)cc3C)CC2)cc1` [Example 106, 4-{4-[3-(5-chloro-2-ethoxy-phenyl)-ureido]-phenyl}-piperazine-1-carboxylic acid (4-methoxy-2-methyl-phenyl)-amide]: the melting point fell in the range of 210 to 213 °C. Besides, the inhibition at 0.1 µg/mL in data set [1] was no less than 50%.
Compound `CCOc1ccc(Cl)cc1NC(=O)Nc1ccc(N2CCN(C(=O)Nc3ccc(C)cc3Cl)CC2)cc1` [Example 107, 4-{4-[3-(5-chloro-2-ethoxy-phenyl)-ureido]-phenyl}-piperazine-1-carboxylic acid (2-chloro-4-methyl-phenyl)-amide] gave a melting point of 124 to 126 °C. Further, the inhibition at 0.1 µg/mL in data set [1] was no less than 50%.
The like results for `COc1ccc(NC(=O)N2CCN(c3ccc(NC(=O)Nc4cc(Cl)ccc4OC)cc3)CC2)c(C)c1` [Example 109, 4-{4-[3-(5-chloro-2-methoxy-phenyl)-ureido]-phenyl}-piperazine-1-carboxylic acid (4-methoxy-2-methyl-phenyl)-amide] were, in that order, 225 to 226 °C and no less than 50%.
The like results for `CCOc1ccccc1NC(=O)Nc1ccc(N2CCN(C(=O)Nc3ccc(OC)cc3C)CC2)cc1` [Example 110, 4-{4-[3-(2-ethoxy-phenyl)-ureido]-phenyl}-piperazine-1-carboxylic acid (4-methoxy-2-methyl-phenyl)-amide] were, in that order, 202 to 203 °C and no less than 50%.
`CCOc1ccc(C)cc1NC(=O)Nc1ccc(N2CCN(C(=O)Nc3ccc(OC)cc3C)CC2)cc1` [Example 111, 4-{4-[3-(2-ethoxy-5-methyl-phenyl)-ureido]-phenyl}-piperazine-1-carboxylic acid (4-methoxy-2-methyl-phenyl)-amide] returned a melting point of 202 to 204 °C. Besides, the inhibition at 0.1 µg/mL in data set [1] is no less than 50%.
The like results for `CCOc1ccc(F)cc1NC(=O)Nc1ccc(N2CCN(C(=O)Nc3ccc(OC)cc3C)CC2)cc1` [Example 112, 4-{4-[3-(2-ethoxy-5-fluoro-phenyl)-ureido]-phenyl}-piperazine-1-carboxylic acid (4-methoxy-2-methyl-phenyl)-amide] were, in that order, 186 to 189 °C and no less than 50%.
The compound `COc1ccc(NC(=O)N2CCN(c3ccc(NC(=O)Nc4cc(F)ccc4OC)cc3)CC2)c(C)c1` [Example 113, 4-{4-[3-(5-fluoro-2-methoxy-phenyl)-ureido]-phenyl}-piperazine-1-carboxylic acid (4-methoxy-2-methyl-phenyl)-amide] registered a melting point of 216 to 218 °C. Also, the inhibition at 0.1 µg/mL in data set [1] was no less than 50%.
The compound `COc1ccc(Cl)cc1NC(=O)Nc1ccc(N2CCN(C(=O)Nc3c(C)cccc3C)CC2)cc1` [Example 114, 4-{4-[3-(5-chloro-2-methoxy-phenyl)-ureido]-phenyl}-piperazine-1-carboxylic acid (2,6-dimethyl-phenyl)-amide] showed a melting point of 216 to 218 °C. Besides, the inhibition at 0.1 µg/mL in data set [1] is no less than 50%.
`COc1ccc(Cl)cc1NC(=O)Nc1ccc(N2CCN(C(=O)Nc3c(F)cccc3C(F)(F)F)CC2)cc1` [Example 115, 4-{4-[3-(5-chloro-2-methoxy-phenyl)-ureido]-phenyl}-piperazine-1-carboxylic acid (2-fluoro-6-trifluoromethyl-phenyl)-amide] showed a melting point of 156 to 158 °C. For the same compound, in data set [1], the inhibition at 0.1 µg/mL was no less than 50%.
In the case of `CCOc1ccccc1NC(=O)Nc1ccc(N2CCN(C(=O)Nc3c(C)cccc3C)CC2)cc1` [Example 116, 4-{4-[3-(2-ethoxy-phenyl)-ureido]-phenyl}-piperazine-1-carboxylic acid (2,6-dimethyl-phenyl)-amide], the melting point was in the range of 204 to 205 °C. Besides, in data set [1], the inhibition at 0.1 µg/mL is no less than 50%.

The record behind these values is US20070249620A1, “Urea Derivative” (priority 2004, published 2007).
